Measured values: patent US20020147158A1, “Composition and method for preventing and treating sinusoidal obstruction syndrome and radiation-induced liver disease” (University of Southern California, priority 2001, published 2002)
“Also recorded” adds a separate entry of the source.

What was measured:
[1] = tested on: monocrotaline-induced hepatic venoocclusive disease; experiment: monocrotaline-induced rat model of SOS (hepatic venoocclusive disease), blinded histologic scoring; format: in vivo; conditions: for prevention of SOS (overall histologic score, FIG. 1): monocrotaline model
Description: This FIGURE describes the effect of MMP inhibition in the in monocrotaline-induced model of SOS. Injury is rated as absent (−) or as one, two or three plus. The overall score reflects central vein (CV) endothelial damage, hemorrhage and coagulative necrosis: 2-3 points is considered mild SOS, 4-6 points is considered moderate SOS and 7-9 points is severe disease. The MMP2/MMP9 inhibitor used is 2-[(4-biphenylylsulfonyl)amino]-3-phenyl-propionic acid.
The present invention provides methods for using matrix metalloproteinase inhibitors to prevent and treat chemotherapy-induced liver disease, such as SOS and radiation-induced liver disease. These studies were done in an in vivo model of monocrotaline-induced hepatic venoocclusive disease which closely resembles the human disease.^8 Two commercially available MMP inhibitors were tested in the in vivo rat model of hepatic venoocclusive disease: doxycycline and the MMP-2/MMP-9 inhibitor, 2-[(4-biphenylsulfonyl)amino]-3-phenyl-propionic acid. Doxycycline, 15 mg/kg was given twice daily by gavage prior to onset of the disease and continued until the time of sacrifice. 2-[(4-biphenylsulfonyl)amino]-3-phenyl-propionic acid, 200 μg/hour was infused into the portal circulation until the time of sacrifice. A systematic scoring system was devised to review all the changes associated with hepatic venoocclusive disease.
The rats that were treated with the MMP inhibitors were sacrificed on day 4, which is the time-point with most severe disease in this model of hepatic venoocclusive disease when no therapeutic interventions are used. […] Both of these MMP inhibitors prevent hepatic venoocclusive disease in a dose-dependent manner, these showing that this is a class effect of MMP inhibitors and characteristic of MMP inhibition.

MMPs = conditions: stated in words, no test described; cited from earlier work

| Compound | hepatic venoocclusive disease on blinded pathology scoring ([1]; day 4, 200 μg/hour infused intraportally by osmotic minipump) | protection from liver changes at lower doses ([1]; doses lower than 15 mg/kg twice daily (doxycycline) or 200 μg/hour (BPP)) | prevention of SOS (overall histologic score, FIG. 1) ([1]; day 4, listed as 2-[(4-biphenylylsulfonyl)amino]-3-phenyl-propionic acid) | prevention of SOS (overall histologic score, FIG. 1) ([1]; day 4, listed as BPP) | prevention of SOS (overall histologic score, FIG. 1) ([1]; day 4) | inhibitory effect on MMPs (MMPs) |
| --- | --- | --- | --- | --- | --- | --- |
| O=C(O)C(Cc1ccccc1)NS(=O)(=O)c1ccc(-c2ccccc2)cc1 (centres unmarked) [2-[(4-biphenylsulfonyl)amino]-3-phenyl-propionic acid] | absence of hepatic venoocclusive disease | partial protection | completely prevented | completely inhibits SOS |  |  |
| Cc1c2c(c(O)c3c(O)cccc13)C(=O)[C@]1(O)C(=O)C(C(N)=O)=C(O)[C@@H](N(C)C)[C@@H]1C2 [anhydrotetracycline] |  |  |  |  | do not prevent SOS; also recorded: minimal protective effect | weak MMP inhibitors; also recorded: little inhibitory effect on MMPs |
| isochlorotetracycline |  |  |  |  | do not prevent SOS; also recorded: minimal protective effect | weak MMP inhibitors; also recorded: little inhibitory effect on MMPs |
